Results reported in PMC8280143, “A novel dephosphorylation targeting chimera selectively promoting tau removal in tauopathies” (Signal Transduction and Targeted Therapy, 2021).
Entries after “also recorded” stand apart in the source; their conditions may differ.

What was measured:
MAP2 = MAP2 level in primary neurons; assay type: cell-based
Protocol: (§1) Cultured cells or hippocampus tissues were collected on ice, and homogenized with RIPA lysis buffer containing 50 mM Tris-HCl, 100 mM NaCl, 1% Triton X-100, 5 mM EDTA, and 1:100 PMSF, and then centrifuged at 12,000 × g for 20 min. The supernatant was collected for the analysis of soluble proteins. In some experiments, the pellets were further incubated with 8% SDS buffer at 37 °C and then ultrasound for 60 times to reach a complete resuspension for the analysis of insoluble tau. Protein concentration was measured through BCA assays (Thermo Fisher). Equal amount of protein from each sample were separated in SDS-PAGE gels, and then transferred onto nitrocellulose or 0.22 μm polyvinylidene fluoride membranes (Merck Millipore). […] Blots were visualized using ECL luminol reagent (P0018FS, Beyotime), and quantified using ImageJ software.

[1] = test system: human tau in HEK293(hTau) cells; experiment: Tau dephosphorylation and reduction in hTau-expressed HEK293 cells; assay type: cell-based; settings: Supplementary Fig. S4; by contrast to neurons
Protocol: HEK293 cells with stable expression of wild-type full-length human tau (term as HEK293(hTau) cells), were cultured in DMEM (Hyclone, SH30022.01) containing 10% fetal bovine serum (Biological Industries, 04–001-1ACS) and […] G418 (Thermo Fisher Scientific, 10,131,027) under 5% CO2, 37 °C.
as §1

[2] = test system: dentate granular cells of Tau368 mice; experiment: Sholl analysis of dendrite complexity; assay type: in vivo, mouse
Protocol: For 2-month male C57BL/6 mice, 10 mM FITC-labeled or unlabeled-DEPTAC were directly injected through the tail vein or lateral ventricle for the evaluation of BBB-penetrability. For 9-month 3×Tg AD mice or Tau368 (20–30 g body weight), unlabeled-DEPTAC (5 mM, 1 μL for each time) was delivered for once into the lateral ventricle through direct stereotaxic injection, or repeatedly administrated through guiding cannulas (RWD, Shenzhen, China) implanted into the lateral ventricle once every 3 days for a consecutive month to test its dephosphorylation efficiency. Mice were restricted in a custom designed device and stayed awake during drug administration, and sacrificed at 24 h post the single or last DEPTAC administration.
A total volume of 0.3 μL mixture of AAV-CaMKIIα-Cre (5.21E+07) and AAV-EF1α-DIO-mCherry (3.24E+12) (1:1 vol/vol) was stereotaxically injected into the dDG of Tau368 mice 1 month following the beginning of dox or normal drinking water administration. Dox was stopped 1-month post AAVs injection, and DEPTAC were delivered through lateral ventricle for a consecutive month. Behavioral tests were performed after the DEPTAC administration, and mice were killed after behavioral tests. Hippocampal sections of 60 μm were obtained, and fluorescent images were taken by a two-photon laser-scanning confocal microscope (LSM710, Zeiss). The dendrite complexity of granular cells in the dorsal dentate gyrus was evaluated by Sholl analysis using Simple Neurite Tracer plugin and ImageJ (Fiji) software. Dendrite spine density and the averaged area of mossy fiber punctas were evaluated using ImageJ by an experimenter blinded from mice groupings. It should be noted that the fluorescence-labeled mossy fibers assembled densely in the CA3 subset, the main target area of mossy fiber axon terminals, making it difficult to accurately measure the puncta areas (data not shown). Therefore, we chose the hilus of DG subset for the measurement, which we believe should be also valid to indicate the axon plasticity of DG granular cells.

Tau368 mice = experiment: Morris water maze test; assay type: in vivo, mouse
From the text: Morris water maze tests began 3 days after the novel-object recognition tests. Briefly, mice were trained to find a hidden platform submerged under water in a Morris water maze (1.2 m in diameter) for five consecutive days with three trials per day. Visual cues outside the pool remained constant. In each trial, mice were pseudorandomly placed, facing the pool wall, in one of the three quadrants without platform and allowed to freely seek the hidden platform within 60 s. […] The traveling path of each mouse was recorded and analyzed online using an MWZ-100 video-tracking system (Techman, China). At day 6, each mouse was tested for 60 s in the water maze with the hidden platform removed. Videos were recorded using recorded and time of mice stayed in, and number of entries into the target quadrant previously place the platform were analyzed using MWZ-100 and ANY-maze video tracking system (Stoelting).

[3] = dox-treated Tau368 mice, day 6, platform removed, *p < 0.05

## (1) YQQYQDATADEQG, originates from the porcine β-tubulin 422–434 for recognizing and binding tau proteins.[5],[6] (2) GSGS, a linker for increasing the flexibility of the peptide.[15] (3) KKVAVVRTPPKSP, for recruiting PP2A-Bα,[16] and (4) RRRRRRRR [DEPTAC, DEPhosphorylation TArgeting Chimera; 38 amino acid residues, C185H314N72O56]
MAP2; Supplementary Fig. S3, specificity to tau
  level of MAP2: did not change
MAP2; discussion
  selectivity to tau proteins: considerable selectivity to tau proteins
[1]
  effectiveness in dephosphorylating and reducing tau in hTau-expressed HEK293 cells: relatively limited effectiveness
[2]; NW-treated Tau368 mice, n = 3~5 mice, 12~22 neurons
  dendrite complexity, NW-treated: did not statistically change; also recorded: no statistically significant change
[2]; control mice without human tau accumulation
  neurite differentiation in control mice: did not statistically change
[2]; dox-treated Tau368 mice, n = 3~5 mice, 12~22 neurons
  dendrite complexity, dox-treated: did not statistically change; also recorded: no statistically significant change
Tau368 mice; control mice without human tau accumulation (NW)
  spatial learning and memory in control mice: only limitedly affected; also recorded: did not statistically change
Tau368 mice; dox-treated Tau368 mice, **p < 0.01, *p < 0.05
  spatial learning deficit in Morris water maze: rescued; also recorded: significantly alleviated
Tau368 mice; dox-treated Tau368 mice, day 6, platform removed
  spatial memory impairment in Morris water maze: rescued; also recorded: attenuated
Tau368 mice; [3]
  number of entries into the target quadrant: increased
  time staying in the target quadrant: increased
